system: Fibrosarcoma Meth A; assay: Anti-tumor activity against Fibrosarcoma Meth A in mice (mean survival time, T/C); type: in vivo; details: T/C x 100 of mean survival time (medicated vs control group); female BALB/c mice inoculated intrapleurally with 5 x 10^5 Meth A cells; compound injected into pleural cavity, 100 pg/0.05 ml/mouse three times (before 14 days, after 1 hour and after 3 days of tumor implantation)
Experimental: Groups of eight female BALB/c mice, aged 8-9 weeks and weighing 18.0-22.5 g were used.
Fibrosarcoma Meth A (hereinafter referred to as Meth A) was successively transferred every 7 days into BALB/c mice by intraperitoneal inoculation of the ascites cells thereof and the Meth A in the ascites cells as harvested 6 or 7 days after the inoculation was used as tumor cells.
Each of the BALB/c mice was inoculated intrapleurally with 5 x 10^5 Meth A cells in 0.1 ml Hanks solution.
Test compound was dissolved in phosphate buffer saline solution, and was injected into pleural cavity to each of the mice in doses of 100 pg/0.05 ml/mouse three times, i.e. before 14 days, after 1 hour and after 3 days of tumor implantation.
The control group was given with a vehicle alone in the same way.
The antitumor activity of the test compound was estimated by comparing mean survival time of the two groups. • T : Mean survival time of the medicated group • C : Mean survival time of the control group

First: CCCCCCCCCCCCCCCCCCO[C@@H]1[C@@H](OC)[C@@H](OC)O[C@@H]1COP(=O)([O-])OCC[N+](C)(C)C [Ex 4-(3), Methyl 2-0-methyl-3-0-octadecyl-a-D-xylofuranoside 5-(choline phosphate)]
Second: CCCCCCCCCCCCCCCCCCO[C@H]1[C@@H](O)[C@H](OC)O[C@@H]1COP(=O)([O-])OCC[N+](C)(C)C [Ex 6-(7), Methyl 3-O-octadecyl-β-D-ribofuranoside 5-(choline phosphate)]
The “Anti-tumor activity *a (%)” value of the first is higher: 408% for the first, 383% for the second.

`CCCCCCCCCCCCCCCCCCOCC(COP(=O)([O-])OCC[N+](C)(C)C)OC` (racemic) [Control Compound, (rac)-1-O-Octadecyl-2-0-methyl-glycerol-3-phosphorylcholine, reference compound] was tested, and the “Anti-tumor activity *a (%)” value was 302.8%.

Reference: patent publication EP0103877A1, “Phosphate derivatives, process for preparation thereof and pharmaceutical compositions of the same” (FUJISAWA PHARMACEUTICAL CO., LTD., priority 1982, dated 1984)
